Data: publication PMC10987503, “Biomimetic NIR-II fluorescent proteins created from chemogenic protein-seeking dyes for multicolor deep-tissue bioimaging” (Nature Communications, 2024)
Blank lines part the entries; values can stand above or below the molecule they belong to.

Legend:
[1] = molecular target: T1, human serum albumin (HSA) (Homo sapiens, UniProt P02768); assay: BLI; also HRMS ([…] covalent binding) and SDS-PAGE
T1 construct: gene ALB; full HSA; recombinant domain III (DIII) also measured
T1 sequence (P02768 25-609): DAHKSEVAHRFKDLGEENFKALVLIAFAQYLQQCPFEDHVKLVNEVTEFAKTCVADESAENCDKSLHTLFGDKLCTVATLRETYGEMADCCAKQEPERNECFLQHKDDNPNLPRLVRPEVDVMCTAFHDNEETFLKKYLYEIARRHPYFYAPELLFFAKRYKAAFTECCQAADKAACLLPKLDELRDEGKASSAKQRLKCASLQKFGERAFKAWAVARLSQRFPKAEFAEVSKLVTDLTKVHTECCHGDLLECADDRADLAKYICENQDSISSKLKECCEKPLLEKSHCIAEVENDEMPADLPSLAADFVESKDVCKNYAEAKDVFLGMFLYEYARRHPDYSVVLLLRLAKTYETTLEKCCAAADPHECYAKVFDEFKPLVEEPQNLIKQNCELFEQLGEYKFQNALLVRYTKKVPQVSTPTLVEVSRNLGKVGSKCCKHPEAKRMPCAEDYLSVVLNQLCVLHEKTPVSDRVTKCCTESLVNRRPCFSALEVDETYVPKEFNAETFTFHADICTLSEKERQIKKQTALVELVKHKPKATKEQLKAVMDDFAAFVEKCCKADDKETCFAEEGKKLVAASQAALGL

[2] = molecular target: T1, human serum albumin (HSA); assay: BLI; also HRMS ([…] covalent binding) and SDS-PAGE; remark: listed apart in the source
[3] = molecular target: T1, human serum albumin (HSA); assay: BLI; also HRMS, SDS-PAGE and proteomics of the covalent adduct; assay type: binding

- Kd [1]: ~14.5 nM
SMILES: CCn1/c(=C/C=C2\CCCC(/C=C/C3=[N+](CC)c4cccc5cccc3c45)=C2Cl)c2cccc3cccc1c32 [Et-1080]

- Kd [2]: ~82.6 nM
SMILES: O=S(=O)(O)CCCCn1/c(=C/C=C2\CCCC(/C=C/C3=[N+](CCCCS(=O)(=O)O)c4cccc5cccc3c45)=C2Cl)c2cccc3cccc1c32 [FD-1080]

- Kd [3]: ~2.13 nM
SMILES: O=C(O)CCCCCn1/c(=C/C=C2\CCCC(/C=C/C3=[N+](CCCCCC(=O)O)c4cccc5cccc3c45)=C2Cl)c2cccc3cccc1c32 [CO-1080]
